# Assay results reported in patent publication US9982011B2, “Legumain activated doxorubicin derivative as well as preparation method and application thereof” (priority 2012, dated 2018).
# “Also recorded” adds a separate entry of the source. Structures can show the parent of a compound that is named as a salt. Starred links: 1 amine or outer side, 2 acyl side, 3 side chain; linkers in the order of their positions; H or OH if unused. Residues, ends and D or L forms follow the SMILES beside them. *: point of attachment. Doxorubicin(3'-N) = COc1cccc2c1C(=O)c1c(O)c3c(c(O)c1C2=O)C[C@@](O)(C(=O)CO)C[C@@H]3O[C@H]1C[C@H](N*)[C@H](O)[C@H](C)O1; Suc = O=C(CCC(=O)[*:2])[*:1]
# What was measured:
# [1] = Metabolic half-life in mice blood
# [2] = biological target: Cathepsin B (Homo sapiens, UniProt P07858); assay: In vitro binding to cathepsin absorbed on a 96-well plate (fluorescence of bound drug); conditions: FIG. 1
# From the text: The R6 group allows the drug to be able to target cathepsin (Cathepsin B) in the tumor microenvironment and inhibit the activity of cathepsin necessary for tumor growth, development and metastasis. […] The R6 group also allows the drug to have an additional function of targeting tumor, thus the drug has two targeted effects.
# The test method was described as follows. Cathepsin was absorbed on a 96-well plate and blocked with BSA. Succinyl-AANL-DOX (SEQ ID NO: 2), S1 and a mixture of S1 and E-64 (an inhibitor for specific binding of cathepsin) were added to allow them to bind to the cathepsin on the 96-well plate. The unbound drugs were removed and the fluorescence of the bound drug was detected.
# [3] = biological target: serum albumin (Mus musculus, UniProt P07724); conditions: blood taken 10 minutes after intravenous tail injection
# Protocol: Bloods were taken after 10 minutes and centrifuged to obtain serum. The proteins in the serum were precipitated by 70% ethanol.
# [4] = Maximum tolerated dose (MTD) / acute toxicity of a single injection in mice; conditions: female, BALB/C, mouse, in vivo
# From the text: (§1) Test purpose: to investigate the acute toxicity of the subject new drug formulation via MTD assay by intravenous administration to mice.
# (§2) Test drug: S1 and S2 injections, diluted to the corresponding concentrations with physiological saline when tested.
# (§3) Animal: the first class BALB/C mice, weighing 19-21 g and all mice being female.
# (§4) Method and results: 36 female BALB/C mice weighing 19-21 g were randomly divided into 6 groups according to their body weights, with 6 mice in each group. […] Control tests were performed by injecting 0.2 ml physiological saline or doxorubicin hydrochloride. […] Blood samples were taken on the 3, 5 and 14 days for counting the whole blood cells. Animals were anatomized on day 14 to take the heart, liver, kidney, lung, spleen, and pancreas for HE staining.
# (§5) The MTD for intravenous administration of a test drug is an important reference index for drug toxicity.
# [5] = test system: BALB/C mice; assay: as above
# From the text: as §1, §2, §3, §4, §5
# [6] = test system: MDA-MB231 cells; assay: Efficacy in MDA-MB231 tumor model in nude mice; format: in vivo
# From the text: Test purpose: to investigate the anti-tumor efficacy of S1 and S2 via mouse tumor treatment model.
# Test drug: S1 and S2 injections, and doxorubicin hydrochloride injection, diluted to corresponding concentrations by physiological saline when testing.
# 1. Animal: nude mice of 6-8 weeks old, all female.
# 1) MDA-MB231 cells were purchased from American type culture collection (ATCC) and identified according the specification provided by ATCC.
# 2) Production of tumor. […] Mice were randomly grouped after the diameter of the tumor reached about 0.3 cm to 0.4 cm. Then treatment began.
# (§6) According to the clinical application of S1 and S2, drugs were intraperitoneally injected. A dose of 30 mg/kg (<1/2 MTD) was used for the S1 treatment group, 30 mg/kg (<1/2 MTD) for the S2 treatment group, and 4 mg/kg (>1/2 MTD) for doxorubicin hydrochloride. The control group was administered with physiological saline. The drugs were administered twice weekly for three weeks.
# [7] = test system: 4T1 cells; assay: Efficacy in 4T1 tumor metastasis (lung) model in BALB/C mice; format: in vivo
# From the text: Test purpose: to investigate the anti-tumor efficacy of S1 and S2 in a tumor metastasis treatment model from BALB/C mice.
# Test drug: S1 and S2 injections, and doxorubicin hydrochloride injection, diluted to corresponding concentrations with physiological saline when testing.
# 1. Animal: BALB/C mice of 6-8 weeks old, all female.
# 1) 4T1 cells were purchased from American type culture collection (ATCC) and identified according the specification provided by ATCC. Cells were cultivated in DMEM culture medium containing 10% fetal bovine serum at 37° C. and 5% CO2. The cells were passaged for every three days and cells within the 15th passage were used.
# 2) Production of tumor metastasis. 10^6 […] were subcutaneously injected to the back of the BALB/C mice. Mice were randomly grouped after the tumor grew to about 1.5 cm. The subcutaneous tumor was removed by surgery and drug treatment began. Mice were killed after anesthesia on day 27. The whole lung was taken out and put into Bouin's solution for staining. The number of the tumor metastasized to lung was counted with anatomical microscope.
# as §6, with “3) Course of treatment. According” for “According”, “10 μmol/kg (<1/10” for “30 mg/kg (<1/2”, “3 μmol/kg” for “4 mg/kg”, “daily” for “twice weekly”, “8 days.” for “three weeks.”
# [8] = 10 mg/kg, single injection, 6 female BALB/C mice
# [9] = lung, day 27, i.p. daily for 8 days, S1, S2 10 μmol/kg, doxorubicin hydrochloride 3 μmol/kg
# Chain of serum albumin (P07724 25-608): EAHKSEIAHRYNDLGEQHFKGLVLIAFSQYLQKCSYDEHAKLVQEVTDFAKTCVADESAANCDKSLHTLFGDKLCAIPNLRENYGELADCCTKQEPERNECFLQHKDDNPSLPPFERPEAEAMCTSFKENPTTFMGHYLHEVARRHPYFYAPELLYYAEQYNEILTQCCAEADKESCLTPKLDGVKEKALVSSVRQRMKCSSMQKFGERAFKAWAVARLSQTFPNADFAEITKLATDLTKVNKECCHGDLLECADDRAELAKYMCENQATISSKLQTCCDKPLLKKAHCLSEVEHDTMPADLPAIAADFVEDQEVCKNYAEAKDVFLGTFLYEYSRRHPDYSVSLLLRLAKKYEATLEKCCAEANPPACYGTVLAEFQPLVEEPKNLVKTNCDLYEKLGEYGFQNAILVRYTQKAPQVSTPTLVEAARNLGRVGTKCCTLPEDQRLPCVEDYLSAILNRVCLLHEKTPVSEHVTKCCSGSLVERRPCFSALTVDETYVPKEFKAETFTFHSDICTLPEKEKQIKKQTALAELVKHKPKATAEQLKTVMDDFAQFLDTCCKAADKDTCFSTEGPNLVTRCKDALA
smiles,measurement,setting,value
COc1cccc2c1C(=O)c1c(O)c3c(c(O)c1C2=O)C[C@@](O)(C(=O)CO)C[C@@H]3O[C@@H]1C[C@H](NC(=O)[C@H](CC(C)C)NC(=O)[C@H](CC(N)=O)NC(=O)[C@H](C)NC(=O)[C@H](C)NC(=O)OC(C)(C)C)[C@H](O)[C@H](C)O1 [BOC-AANL-DOX],Metabolic half-life in the mice blood,[1],0.7 h
"CC(C)C[C@H](NC(=O)[C@H]1O[C@@H]1C(=O)O)C(=O)NCCCCN=C(N)N [Example E-64, E-64, reference compound]",Competitive inhibition of the binding of S1 to cathepsin,[2]; mixture of S1 and E-64,could competitively inhibit the binding of S1; also recorded: binding can be inhibited by cathepsin inhibitor E-64
"COc1cccc2c1C(=O)c1c(O)c3c(c(O)c1C2=O)C[C@@](O)(C(=O)CO)C[C@@H]3O[C@H]1C[C@H](NC(=O)[C@H](CC(C)C)NC(=O)[C@H](CC(N)=O)NC(=O)[C@H](C)NC(=O)[C@H](C)NC(=O)CCC(=O)O)[C@H](O)[C@H](C)O1 [Succinyl-AANL-DOX, reference compound] (Suc-AANL-{Doxorubicin(3'-N)})",Binding to cathepsin,"[2]; cathepsin absorbed on 96-well plate, blocked with BSA",did not bind to absorbed cathepsin
same,Binding to serum albumin / plasma protein in blood,[3],did not bind to serum albumin in the blood plasma
same,Metabolic half-life in the mice blood,[1],37 h
"COc1cccc2c1C(=O)c1c(O)c3c(c(O)c1C2=O)C[C@@](O)(C(=O)CO)C[C@@H]3O[C@H]1C[C@H](N)[C@H](O)[C@H](C)O1 [doxorubicin hydrochloride, reference compound]",MTD at 17 days,[4],4 to 8 µmol/kg
same,Mortality rate (%),[5]; [8],100%
same,Number of dead animal,[5]; [8],6
same,MDA-MB231,"[5]; Table 4, toxicity by the method of Test Example 1",7 mg/kg
same,"Inhibitory rate of tumor, 20 days","[6]; 20 days, i.p. twice weekly for three weeks, S1, S2 30 mg/kg, doxorubicin hydrochloride 4 mg/kg",7.4%
same,"Size of tumor (mm^3), 20 days","[6]; 20 days, i.p. twice weekly for three weeks, S1, S2 30 mg/kg, doxorubicin hydrochloride 4 mg/kg, nude mice",358.7 ± 39.7 mm^3
same,"Inhibitory rate of tumor, 38 days","[6]; 38 days, i.p. twice weekly for three weeks, S1, S2 30 mg/kg, doxorubicin hydrochloride 4 mg/kg",29.1%
same,"Size of tumor (mm^3), 38 days","[6]; 38 days, i.p. twice weekly for three weeks, S1, S2 30 mg/kg, doxorubicin hydrochloride 4 mg/kg, nude mice",881.2 ± 86.5 mm^3
same,Tumor-inhibitory rate (day 38),"[6]; day 38, same method as Test Example 2",29.1%
same,Inhibitory rate on metastasis,[7]; [9],31.4%
same,Number of metastasized tumor,[7]; [9],98 ± 18
same,Metastasis-inhibitory rate,[7]; same method as Test Example 3,31.4%
